Test: Human HepG2 cell viability assay in 384 well format
Format: toxicity, cell-based
Design: dose 125 nL, time 70.5 hour; cytotoxicity at 70.5 h: concentration not given beside the values
Details: HepG2 cells, read-out: Inhibition

| Compound | cytotoxicity at 70.5 h |
| --- | --- |
| O=C1CC2(CCSC2)C(=O)N1Cc1ncc(-c2cccc(F)c2)o1 (configuration not stated) | -1.19% |
| COc1ccc2c(c1)nc1n2[C@@H](CNC(=O)c2ccccn2)COC1 | -7.73% |
| CC(C)c1nc2cc(NC(=O)Cn3ccccc3=O)ccc2o1 | -3.88% |
| CC(C)(CN1CCC(Cc2cccc(C(=O)O)c2)C1)N1CCOCC1 (configuration not stated) | -9.68% |
| CN(C)CC1(O)CCN(C(=O)c2cnc(-c3ccccn3)nc2)C1 (configuration not stated) | 15.3% |
| Cc1cc(NC(=O)C2CN(Cc3ccccc3)CCO2)ccn1 (configuration not stated) | 13% |
| Cc1nc[nH]c1C(=O)N1CCCC2(C1)C(=O)N(C)c1ccccc12 (configuration not stated) | -3.87% |
| Cc1ccc2cccc(C(=O)NCC3CCN(C(C)C)C3)c2n1 (configuration not stated) | 12% |
| COc1ccc2cc(-c3n[nH]cc3CN3CCSCC3)ccc2c1 | 0.45% |
| Cc1cc(N2Cc3cnc(CC(C)C)nc3C2)nc(N)n1 | 0.669% |
| COc1ccc(CN(Cc2cc(C)no2)C2CC2)cc1 | 0.248% |
| CSc1ccccc1CCC1CCS(=O)(=O)C1 (configuration not stated) | -1.45% |
| CN1C(=O)CCN(C(=O)C2CC=CC2)c2ccccc21 | 1.54% |
| CN1CCC(Oc2ccc(NC(=O)c3cccc(Cl)c3)cc2)CC1 | -3.56% |
| CCOC(=O)c1coc(N2CCN(C(=O)c3cccc(OC)c3)CC2)n1 | -8.88% |
| CCOc1nnc(CN2CCCC(c3nc4ccccc4[nH]3)C2)s1 (configuration not stated) | -3.56% |
| Cn1ccnc1C1CCN(S(=O)(=O)c2ccc3c(c2)OCCO3)CC1 | 9.02% |
| c1cc(CN2CCc3nc(N4CCOCC4)nc(NC4CC4)c3C2)co1 | -10.6% |
| O=C(NC[C@@H]1C[C@@H]2CN(C(=O)CO)C[C@H]2O1)c1ccsc1 | 21% |

| Compound | cytotoxicity at 70.5 h |
| --- | --- |
| CN(C)C1Cc2ccccc2N(S(=O)(=O)c2ccccc2C#N)C1 (configuration not stated) | 34.1% |
| O=C(Cn1cc(C(=O)O)ccc1=O)Nc1ccc(Cl)cc1F | -38% |
| COc1cccc(OCC2CCCN(C(=O)c3cc(C)n[nH]3)C2)c1 (configuration not stated) | 4.2% |
| CCN1CCOC(CNCc2ccc(OC)c(F)c2)C1 (configuration not stated) | -6.46% |
| O=C(c1ccc(-n2cncn2)cc1)N1CCN(c2cnccn2)CC1 | -9.5% |
| Cc1ccc(C(=O)N2CC(C(N)=O)O[C@H](C)C2)c(F)c1 (some centres not stated) | -0.939% |
| Cn1nc(C#N)c2c1CN(C(=O)c1cccnc1)CCC2 | 29.4% |
| COc1ccccc1S(=O)(=O)Nc1ccc2c(C(=O)O)c[nH]c2c1 | -6.86% |
| O=C(CNc1ccc(OC2CCOC2)cc1)NCc1ccco1 (configuration not stated) | -21.4% |
| CCC[C@@H]1CN(C(=O)c2conc2-c2ccccc2)C[C@H]1N(C)C | 0.694% |
| CN1CCN2CCN(C(=O)c3cc4ncc(CCO)cn4n3)CC2C1 (configuration not stated) | -15.2% |
| COCC1CC2(CCN(C(=O)c3cnc4ccccc4c3)CC2)CO1 (configuration not stated) | -0.655% |
| O=C(O)c1nnn(-c2ccc(F)c(F)c2)c1-c1ccncc1 | -8.76% |
| Cc1nc(C2(O)CCCNCC2)sc1CCOc1ccc(F)c(F)c1 (configuration not stated) | -4.26% |
| O=S(=O)(NC1=NCN(CCc2ccccc2)CN1)c1ccc(F)cc1 | -27.6% |
| OC(CNCc1ccccc1C(F)(F)F)c1ccccc1 (configuration not stated) | -5.57% |
| CCc1c(C(=O)N2C[C@H]3CC[C@@H]2CN(c2cnccn2)C3)csc1C | -6.26% |
| Cc1cc(C)n(CC2CN(Cc3ccccn3)CCO2)n1 (configuration not stated) | 1.96% |
| CCOCC(=O)Nc1nccn1Cc1ccccc1Cl | 13.6% |

| Compound | cytotoxicity at 70.5 h |
| --- | --- |
| CCCNC(=O)c1ccc2c(OC)n(C)nc2c1 | 0.507% |
| O=C(NCc1nnc2n1CCCC2)N(Cc1ccccc1F)C1CC1 | -11.1% |
| CC(C)S(=O)(=O)CCN1CCc2c(ncn2C2CC2)C1 | 3.39% |
| CN1CCN(C(=O)Cc2cccc(F)c2)Cc2cccnc21 | -5.94% |
| Cc1nnc([C@@H]2CC[C@@H]3[C@@H](CCN3S(=O)(=O)C3CC3)O2)o1 | -14% |
| Cc1ccc(-c2ccccc2CC2(C(=O)NC(C)C)CCCNC2)cc1 (configuration not stated) | -3.27% |
| O=C1CCCN1Cc1ncn2c1CN(C(=O)Cc1cccs1)CCC2 | -1.17% |
| O=C(Cc1cccc(F)c1)NCCNCc1ccco1 | 19.4% |
| O=C(c1ccco1)N1CCC(n2nc(-c3cccs3)ccc2=O)CC1 | -5.47% |
| Cc1nnc(CN(C)CCOc2cccc(Cl)c2)o1 | -10.9% |
| Cc1ccc(N2CCC(c3nccn3Cc3cscn3)CC2)nn1 | 0.241% |
| CCc1ccc(OCC(O)CN2CCN(S(C)(=O)=O)CC2)cc1 (configuration not stated) | -5.82% |
| Cc1nn(-c2ccccc2)c(C)c1-c1ccnc(N2CCC(O)CC2)n1 | -5.36% |
| C[C@H]1CC[C@H](C(=O)N2CCC(n3cc(C4(O)CCCC4)nn3)CC2)CC1 | -16.2% |
| Cc1cc(N2CCCCCC2)n2nc(C)c(C)c2n1 | -4.52% |
| CCOC(=O)CN(CC(F)(F)F)C(=O)c1nc(C)n2ccccc12 | -15.3% |
| O=C(COc1ccc(Cl)cc1)NCc1nncn1C1CC1 | -14.1% |
| O=C1CN(Cc2cc(O)c3cccc(F)c3n2)CCN1C1CCCC1 | 5.5% |
| CCN1CCn2c(C)cnc2C12CCN(C(=O)Cc1ccccc1)CC2 | 24.6% |
